Structures are written as SMILES. Several values for one entry are separate records, joined by “and”; a condition that tells them apart may be missing. Equal values may be shown once.

For orientation: EC50 means the concentration needed to bring the measured effect to its halfway point. The term Ki denotes a measure of affinity in units of concentration, obtained from inhibition or displacement.

In experiment [1] the target is T1, human GPR119 (Homo sapiens, UniProt Q8TDV5).
T1 construct: host or cells: HEK293-CRE-beta-lactamase
T1 sequence (Q8TDV5 1-335): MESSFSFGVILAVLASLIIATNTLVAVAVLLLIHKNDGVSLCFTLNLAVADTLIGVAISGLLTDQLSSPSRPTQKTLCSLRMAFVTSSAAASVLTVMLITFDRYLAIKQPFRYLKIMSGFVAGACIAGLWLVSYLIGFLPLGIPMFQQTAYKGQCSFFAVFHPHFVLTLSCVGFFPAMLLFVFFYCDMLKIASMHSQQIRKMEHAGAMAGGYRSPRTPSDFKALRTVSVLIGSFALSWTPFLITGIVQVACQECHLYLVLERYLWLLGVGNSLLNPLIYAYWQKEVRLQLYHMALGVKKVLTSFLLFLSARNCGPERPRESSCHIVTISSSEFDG
The experiment can be described thus: cAMP HTRF functional assay (hGPR119 HEK-CRE beta-lactamase cells). Format: cell-based. The settings on record: one value per run; for EC50: hGPR119 HEK-CRE beta-lactamase cells, HTRF cAMP; for Intrinsic Activity* (cAMP) / Emax: percent of maximal activity relative to standard GPR119 agonist (WO2005121121) at 10 μM; for Emax: read-out: Intrinsic Activity* (cAMP). On the procedure:
GPR119 agonist activity was also determined with a cell-based assay utilizing an HTRF (Homogeneous Time-Resolved Fluorescence) cAMP detection kit (cAMP dynamic 2 Assay Kit; Cis Bio cat #62AM4PEC) that measures cAMP levels in the cell. The method is a competitive immunoassay between native cAMP produced by the cells and the cAMP labeled with the dye d2. The tracer binding is visualized by a Mab anti-cAMP labeled with Cryptate. The specific signal (i.e. energy transfer) is inversely proportional to the concentration of cAMP in either standard or sample.
Following 30 minutes incubation at room temperature, 5 microL of labeled d2 cAMP and 5 microL of anti-cAMP antibody (both diluted 1:20 in cell lysis buffer; as described in the manufacturers assay protocol) were added to each well of the assay plate. […] Raw data were converted to nM cAMP by interpolation from a cAMP standard curve (as described in the manufacturer's assay protocol) and EC50 determinations were made from an agonist-response curves analyzed with a curve fitting program using a 4-parameter logistic dose response equation.
(In TR-FRET formats the signal depends on donor and acceptor labels being close together.)

The target of experiment [2] is T1, human GPR119. Kind of experiment: beta-lactamase reporter functional assay (hGPR119 HEK293-CRE beta-lactamase cells). Format: cell-based. The settings on record: one value per run; for EC50: hGPR119 HEK293-CRE beta-lactamase cells, read-out: Human B-lactamase Functional EC50; for Intrinsic Activity* (B-lactamase) / Emax: percent of maximal activity relative to standard GPR119 agonist (WO2005121121) at 10 microM; for Emax: read-out: Intrinsic Activity* (B-lactamase). On the procedure: The assay for GPR119 agonists utilizes a cell-based (hGPR119 HEK293-CRE beta-lactamase) reporter construct where agonist activation of human GPR119 is coupled to beta-lactamase production via a cyclic AMP response element (CRE). GPR119 activity is then measured utilizing a FRET-enabled beta-lactamase substrate, CCF4-AM (Live Blazer FRET-B/G Loading kit, Invitrogen cat #K1027). […] After 4 hours the plating medium was removed and replaced with 40 microL of assay medium (Assay medium is plating medium without potassium clavulanate and HIFBS). Varying concentrations of each compound to be tested was then added in a volume of 10 microL (final DMSO≦0.5%) and the cells were incubated for 16 hours at 37 degrees Celsius in a humidified environment containing 5% carbon dioxide. Plates were removed from the incubator and allowed to equilibrate to room temperature for approximately 15 minutes. 10 microL of 6×CCF4/AM working dye solution (prepared according to instructions in the Live Blazer FRET-B/G Loading kit, Invitrogen cat #K1027) was added per well and incubated at room temperature for 2 hours in the dark. Fluorescence was measured on an EnVision fluorimetric plate reader, excitation 405 nm, emission 460 nm/535 nm. EC50 determinations were made from agonist-response curves analyzed with a curve fitting program using a 4-parameter logistic dose-response equation.

Experiment [3] has as its target T1, human GPR119. The experiment can be described thus: GPR119 radioligand binding assay ([3H]-Compound A or [3H]-Compound B, HEK 293FT membranes). The settings on record: Ki from IC50 by Cheng-Prusoff; one value per run; read-out: Human Binding Ki. On the procedure: Cells were harvested via centrifugation (3,000×g, 10 minutes), washed once on DPBS (minus Ca++/Mg++), resuspended in 0.25M sucrose, 25 mM HEPES, 0.5 mM EDTA, pH 7.4 and frozen at −80 degrees Celsius.
The frozen cells were thawed on ice and centrifuged at 700×g (1400 rpm) for 10 minutes at 4 degrees Celsius. The cell pellet was resuspended in 20 mL phosphate-buffered saline, and centrifuged at 1400 rpm for 10 minutes. […] Cells were then lysed with 15 gentle strokes of a tight-fitting glass Dounce homogenizer. The homogenate was centrifuged at 1000×g (2200 rpm) for 10 minutes at 4 degrees Celsius. The supernatant was transferred into fresh centrifuge tubes on ice. The cell pellet was resuspended in homogenization buffer, and centrifuged again at 1000×g (2200 rpm) for 10 minutes at 4 degrees Celsius after which the supernatant was removed and the pellet resuspended in homogenization buffer. […] The solution was then centrifuged at 25,000×g (15000 rpm) for 20 minutes at 4 degrees Celsius, the supernatant was discarded, and the pellet was resuspended in fresh homogenization buffer (minus Benzonase and MgCl2). After repeating the 25,000×g centrifugation step, the final membrane pellet was resuspended in homogenization buffer and frozen at −80 degrees Celsius.
2 microL of each dilution was added to appropriate wells of a 96-well plate (each concentration in triplicate).
Membranes expressing GPR119 were thawed and diluted to a final concentration of 20 μg/100 microL per well in Binding Buffer, and 100 microL of diluted membranes were added to each well of 96-well plate.
The plate was incubated for 60 minutes w/shaking at room temperature (approximately 25 degrees Celsius). […] Filters were then washed six times using washing buffer (50 mM Tris-HCl, pH 7.5 kept at 4 degrees Celsius). The filter plates were then air-dyed at room temperature overnight.
IC50 determinations were made from competition curves, analyzed with a proprietary curve fitting program (SIGHTS) and a 4-parameter logistic dose response equation. Ki values were calculated from IC50 values, using the Cheng-Prusoff equation.

With `CC(C)OC(=O)N1CCC(n2ncc(COc3ccc(-c4nnn(C)n4)cc3F)c2C#N)CC1` [Example 21, Isopropyl 4-(5-cyano-4-((2-fluoro-4-(2-methyl-2H-tetrazol-5-yl)phenoxy)methyl)-1H-pyrazol-1-yl)piperidine-1-carboxylate], on human GPR119 [1], the half-maximal effective concentration (EC50) was 44 nM and 32 nM and 57 nM; the “Intrinsic Activity* (cAMP)” value was 31% and 34%; the Emax is 33%. Further, at human GPR119 [2], the 50% effective concentration (EC50) is 688 nM and 201 nM; the “Intrinsic Activity* (B-lactamase)” value amounted to 96%; the Emax turned out to be 100%. The Ki on human GPR119 [3] was 58 nM and 128 nM.

For the compound `CC(C)OC(=O)N1CCC(n2ncc(COc3c(F)ccc(F)c3F)c2C#N)CC1` [Example 32, Isopropyl 4-{5-cyano-4-[(2,3,6-trifluorophenoxy)methyl]-1H-pyrazol-1-yl}piperidine-1-carboxylate], at human GPR119 [1], the half-maximal effective concentration (EC50) is 66 nM and 64 nM and 58 nM; the “Intrinsic Activity* (cAMP)” value was 78% and 60%; the Emax came out at 66%. Also, on human GPR119 [2], the EC50 came out at 281 nM and the Emax amounted to 86%. Also, the Ki on human GPR119 [3] turned out to be 514 nM.

For `Cc1ncccc1NCc1cnn(C2CCN(C(=O)OC(C)C)CC2)c1C#N` [Example 6, Isopropyl 4-(5-cyano-4-{[(2-methylpyridin-3-yl)amino]methyl}-1H-pyrazol-1-yl)piperidine-1-carboxylate], the concentration giving a half-maximal response (EC50) was above 10000 nM at human GPR119 [1] and 6 nM at human GPR119 [2]. Moreover, the Emax on human GPR119 [1] amounted to 17%; at human GPR119 [2] it was 31%. The Ki on human GPR119 [3] was above 6100 nM.

For `Cc1ncccc1OCc1cnn(C2CCN(C(=O)OC(C)C)CC2)c1C#N` [Example 5, Isopropyl 4-(5-cyano-4-{[(2-methylpyridin-3-yl)oxy]methyl}-1H-pyrazol-1-yl)piperidine-1-carboxylate], at human GPR119 [1], the EC50 is 442 nM and 650 nM; the “Intrinsic Activity* (cAMP)” value worked out at 34%; the Emax stood at 39%. In addition, on human GPR119 [2], the EC50 is 250 nM and 227 nM and 395 nM; the “Intrinsic Activity* (B-lactamase)” value was 88% and 104%; the Emax was found to be 100%. Besides, the Ki on human GPR119 [3] was 939 nM and 1710 nM.

As for `CC(C)OC(=O)N1CCC(n2ncc(COc3ccc(-c4cncn4C)cc3F)c2C#N)CC1` [Example 34, Isopropyl 4-(5-cyano-4-{[2-fluoro-4-(1-methyl-1H-imidazol-5-yl)phenoxy]methyl}-1H-pyrazol-1-yl)piperidine-1-carboxylate], at human GPR119 [1], the EC50 was 55 nM and 70 nM; the “Intrinsic Activity* (cAMP)” value stood at 78%; the Emax came to 94%. In addition, on human GPR119 [2], the EC50 came out at 270 nM and the Emax stood at 102%. Besides, the Ki on human GPR119 [3] is 87 nM.

As to `Cc1nc(-n2cncn2)ccc1NCc1cnn(C2CCN(C(=O)OC(C)C)CC2)c1C#N` [Example 36, Isopropyl 4-[5-cyano-4-({[2-methyl-6-(1H-1,2,4-triazol-1-yl)pyridin-3-yl]amino}methyl)-1H-pyrazol-1-yl]piperidine-1-carboxylate], at human GPR119 [1], the concentration giving a half-maximal response (EC50) was 281 nM and 256 nM; the “Intrinsic Activity* (cAMP)” value was 51% and 76%. At human GPR119 [2], the EC50 was determined as 848 nM and the Emax came to 100%. The Ki at human GPR119 [3] is 521 nM and 1450 nM.

On to `CC(C)OC(=O)N1CCC(n2ncc(COc3ccc(F)cc3F)c2C#N)CC1` [Example 11, Isopropyl 4-{5-cyano-4-[(2,4-difluorophenoxy)methyl]-1H-pyrazol-1-yl}piperidine-1-carboxylate], for which, on human GPR119 [1], the 50% effective concentration (EC50) is 163 nM and 98 nM and 154 nM; the “Intrinsic Activity* (cAMP)” value is 74% and 62%; the Emax came out at 61%. Further, on human GPR119 [2], the EC50 is 782 nM and the Emax was found to be 98%. The Ki on human GPR119 [3] turned out to be 530 nM.

Source of the values: US20110020460A1, “GPR 119 MODULATORS” (Pfizer Inc., priority 2009, published 2011).
